Consider two compounds from publication PMC12541554, “Production of the Antimicrobial Roseoflavin With Genetically Engineered Corynebacterium glutamicum” (Microbial Biotechnology, 2025).

The target of one test is T1, RibF^Sda (Streptomyces davaonensis, UniProt K4R340).
T1 construct: gene ribC1; overexpressed from pVWEx1 in C. glutamicum wild type; crude extract (host's native RibF also present)
T1 sequence (K4R340 1-319): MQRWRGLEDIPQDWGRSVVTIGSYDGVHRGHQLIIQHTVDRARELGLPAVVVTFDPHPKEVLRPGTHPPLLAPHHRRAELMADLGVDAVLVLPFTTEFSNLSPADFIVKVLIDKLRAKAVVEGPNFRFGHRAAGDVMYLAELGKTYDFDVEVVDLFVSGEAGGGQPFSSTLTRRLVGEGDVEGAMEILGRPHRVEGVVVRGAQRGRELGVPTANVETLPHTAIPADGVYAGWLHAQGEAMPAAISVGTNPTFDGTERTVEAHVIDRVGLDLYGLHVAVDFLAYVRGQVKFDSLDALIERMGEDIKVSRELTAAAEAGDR
In words: fluorescent ADP detection kinase assay, crude extract. To be noted: ATP co-substrate; crude extract of overexpressing C. glutamicum with native RibF background; 10 min. It counts as biochemical.

Another test deals with T2, RibF^Cg (Corynebacterium glutamicum, UniProt Q8NP47).
T2 construct: gene Cgl1978; overexpressed from pVWEx1 in C. glutamicum wild type; crude extract
T2 sequence (Q8NP47 1-341): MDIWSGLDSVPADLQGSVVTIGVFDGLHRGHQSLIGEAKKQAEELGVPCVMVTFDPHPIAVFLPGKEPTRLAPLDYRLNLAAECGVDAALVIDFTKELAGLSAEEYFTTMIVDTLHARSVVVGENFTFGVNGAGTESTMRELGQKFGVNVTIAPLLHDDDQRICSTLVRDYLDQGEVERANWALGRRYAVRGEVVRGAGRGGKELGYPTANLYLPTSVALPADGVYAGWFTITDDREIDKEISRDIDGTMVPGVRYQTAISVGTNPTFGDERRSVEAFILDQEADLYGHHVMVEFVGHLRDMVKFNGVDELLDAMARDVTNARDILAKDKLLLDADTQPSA
The description is as above. It counts as biochemical. To be noted: ATP co-substrate; crude extract of overexpressing C. glutamicum; 10 min.

For the compound `Cc1cc2nc3c(=O)[nH]c(=O)nc-3n(C[C@H](O)[C@H](O)[C@H](O)CO)c2cc1N(C)C` [roseoflavin], the results for the “fluorescent ADP detection kinase assay, crude extract” value at RibF^Sda and on RibF^Cg were “activity of RibF^Sda was significantly lower in the presence of RoF” and “overexpression of both ribF genes resulted in kinase activity when RF or RoF was added”, respectively.
Regarding `Cc1cc2nc3c(=O)[nH]c(=O)nc-3n(C[C@H](O)[C@H](O)[C@H](O)CO)c2cc1C` [riboflavin], the “fluorescent ADP detection kinase assay, crude extract” value at RibF^Sda is “RibF^Sda also showed lower kinase activity in the presence of RF”; on RibF^Cg, “overexpression of both ribF genes resulted in kinase activity when RF or RoF was added”.
